{"source": "patent US10206937B2", "about": "“Boronic acid derivatives and therapeutic uses thereof” (Qpex Biopharma, Inc., priority 2014, dated 2019)", "test_system": "strains of Enterobacteriaceae producing various carbapenemases (class A, D and B; 104 strains)", "assay": "Antibiotics potentiation by Compound 27 (MIC; meropenem, doripenem, ertapenem, cefepime)", "assay_type": "cell-based", "conditions": "+ 27 = with Compound 27 at fixed 4 μg/ml"}
{"smiles": "COc1ccc2c(c1C(=O)O)OB(O)C(Sc1nnc(N)s1)C2", "note": "(stereo not shown) [M + 27]", "values": [{"measurement": "MIC", "setting": "strain CF1012 Citrobacter freundii (KPC-2)", "result": "X (MIC of less than 1 μg/mL)"}, {"measurement": "MIC", "setting": "strain CF1021 Citrobacter freundii (CMY-type; VIM-1)", "result": "X (MIC of less than 1 μg/mL)"}, {"measurement": "MIC", "setting": "strain CF1022 Citrobacter freundii (SHV-12(2be), TEM-OSBL(2b); IMP-8)", "result": "X (MIC of less than 1 μg/mL)"}, {"measurement": "MIC", "setting": "strain CF1023 Citrobacter freundii (SHV-12(2be), TEM-OSBL(2b); CTX-M-3; CMY-34; NDM-1)", "result": "X (MIC of less than 1 μg/mL)"}, {"measurement": "MIC", "setting": "strain CL1080 Enterobacter cloacae (IMP-1)", "result": "X (MIC of less than 1 μg/mL)"}, {"measurement": "MIC", "setting": "strain EA1019 Enterobacter aerogenes (SHV-5, VIM-1)", "result": "X (MIC of less than 1 μg/mL)"}, {"measurement": "MIC", "setting": "strain EC1007 Escherichia coli (KPC-3)", "result": "X (MIC of less than 1 μg/mL)"}, {"measurement": "MIC", "setting": "strain EC1061 Escherichia coli (NDM-1, CMY-6)", "result": "X (MIC of less than 1 μg/mL)"}, {"measurement": "MIC", "setting": "strain EC1062 Escherichia coli (OXA-48, CTX-M-15)", "result": "X (MIC of less than 1 μg/mL)"}, {"measurement": "MIC", "setting": "strain EC1064 Escherichia coli (NDM-1, CMY-6, CTX-M-15)", "result": "Y (MIC of 1 μg/mL to 10 μg/mL)"}, {"measurement": "MIC", "setting": "strain EC1065 Escherichia coli (IMP-1)", "result": "X (MIC of less than 1 μg/mL)"}, {"measurement": "MIC", "setting": "strain EC1068 Escherichia coli (VIM-1)", "result": "X (MIC of less than 1 μg/mL)"}, {"measurement": "MIC", "setting": "strain EC1069 Escherichia coli (CTX-M-27; NDM-1)", "result": "X (MIC of less than 1 μg/mL)"}, {"measurement": "MIC", "setting": "strain EC1070 Escherichia coli (TEM-OSBL(2b); CMY-42; NDM-5)", "result": "X (MIC of less than 1 μg/mL)"}, {"measurement": "MIC", "setting": "strain EC1072 Escherichia coli (CTX-M-3; NDM-1)", "result": "X (MIC of less than 1 μg/mL)"}, {"measurement": "MIC", "setting": "strain ECL1004 Enterobacter cloacae (NMC-A)", "result": "X (MIC of less than 1 μg/mL)"}, {"measurement": "MIC", "setting": "strain ECL1026 Enterobacter cloacae (KPC-2, TEM-1)", "result": "X (MIC of less than 1 μg/mL)"}, {"measurement": "MIC", "setting": "strain ECL1036 Enterobacter cloacae (KPC-3, TEM-1)", "result": "X (MIC of less than 1 μg/mL)"}, {"measurement": "MIC", "setting": "strain ECL1045 Enterobacter cloacae (VIM-1)", "result": "X (MIC of less than 1 μg/mL)"}, {"measurement": "MIC", "setting": "strain ECL1055 Enterobacter cloacae (KPC-3, TEM)", "result": "X (MIC of less than 1 μg/mL)"}, {"measurement": "MIC", "setting": "strain ECL1057 Enterobacter cloacae (NDM-1, TEM-1, CTX-M-15)", "result": "Z (MIC of greater than 10 μg/mL)"}, {"measurement": "MIC", "setting": "strain ECL1058 Enterobacter cloacae (KPC-3, SHV-11, TEM-1)", "result": "X (MIC of less than 1 μg/mL)"}, {"measurement": "MIC", "setting": "strain ECL1059 Enterobacter cloacae (KPC-3, SHV-12, TEM-1)", "result": "X (MIC of less than 1 μg/mL)"}, {"measurement": "MIC", "setting": "strain ECL1061 Enterobacter cloacae (KPC-3, Hyper AmpC expression)", "result": "X (MIC of less than 1 μg/mL)"}, {"measurement": "MIC", "setting": "strain ECL1082 Enterobacter cloacae (VIM-1)", "result": "X (MIC of less than 1 μg/mL)"}, {"measurement": "MIC", "setting": "strain ECL1084 Enterobacter cloacae (CTX-M-15; ACT-16; NDM-1)", "result": "X (MIC of less than 1 μg/mL)"}, {"measurement": "MIC", "setting": "strain ECL1085 Enterobacter cloacae (SHV-31(2be), TEM-1(2b); CTX-M-15; NDM-1)", "result": "X (MIC of less than 1 μg/mL)"}, {"measurement": "MIC", "setting": "strain ECL1086 Enterobacter cloacae (VIM-31, OXA-48(c))", "result": "X (MIC of less than 1 μg/mL)"}, {"measurement": "MIC", "setting": "strain ECL1087 Enterobacter cloacae (VIM-1)", "result": "X (MIC of less than 1 μg/mL)"}, {"measurement": "MIC", "setting": "strain ECL1088 Enterobacter cloacae (TEM-1(2b); CTX-M-14; ACT-type; VIM-1)", "result": "X (MIC of less than 1 μg/mL)"}, {"measurement": "MIC", "setting": "strain ECL1089 Enterobacter cloacae (ACT-type; IMP-1)", "result": "Y (MIC of 1 μg/mL to 10 μg/mL)"}, {"measurement": "MIC", "setting": "strain ECL1090 Enterobacter cloacae (TEM-1(2b); CTX-M-22; ACT-type; IMP-8)", "result": "X (MIC of less than 1 μg/mL)"}, {"measurement": "MIC", "setting": "strain ECL1091 Enterobacter cloacae (VIM-1)", "result": "X (MIC of less than 1 μg/mL)"}, {"measurement": "MIC", "setting": "strain ECL1092 Enterobacter cloacae (TEM-OSBL(2b); ACT-32; VIM-1)", "result": "X (MIC of less than 1 μg/mL)"}, {"measurement": "MIC", "setting": "strain ECL1093 Enterobacter cloacae (TEM-OSBL(2b); ACT-32; VIM-1)", "result": "X (MIC of less than 1 μg/mL)"}, {"measurement": "MIC", "setting": "strain ECL1094 Enterobacter cloacae (VIM-1)", "result": "X (MIC of less than 1 μg/mL)"}, {"measurement": "MIC", "setting": "strain ECL1096 Enterobacter cloacae (CMY-4, VIM-4, OXA-48(c))", "result": "X (MIC of less than 1 μg/mL)"}, {"measurement": "MIC", "setting": "strain ECL1097 Enterobacter cloacae (SHV-31(2be), TEM-OSBL(2b); CTX-M-15; ACT-31; NDM-1)", "result": "X (MIC of less than 1 μg/mL)"}, {"measurement": "MIC", "setting": "strain ECL1098 Enterobacter cloacae (TEM-OSBL(2b); DHA-1; ACT-16; NDM-1)", "result": "X (MIC of less than 1 μg/mL)"}, {"measurement": "MIC", "setting": "strain KP1001 Klebsiella pneumoniae (KPC TEM SHV)", "result": "Y (MIC of 1 μg/mL to 10 μg/mL)"}, {"measurement": "MIC", "setting": "strain KP1002 Klebsiella pneumoniae (KPC TEM SHV)", "result": "X (MIC of less than 1 μg/mL)"}, {"measurement": "MIC", "setting": "strain KP1003 Klebsiella pneumoniae (KPC TEM SHV)", "result": "X (MIC of less than 1 μg/mL)"}, {"measurement": "MIC", "setting": "strain KP1004 Klebsiella pneumoniae (KPC-2, TEM-1, SHV-11)", "result": "X (MIC of less than 1 μg/mL)"}, {"measurement": "MIC", "setting": "strain KP1008 Klebsiella pneumoniae (KPC-2)", "result": "X (MIC of less than 1 μg/mL)"}, {"measurement": "MIC", "setting": "strain KP1014 Klebsiella pneumoniae (VIM-1, TEM, SHV)", "result": "X (MIC of less than 1 μg/mL)"}, {"measurement": "MIC", "setting": "strain KP1054 Klebsiella pneumoniae (VIM-1, SHV-11)", "result": "X (MIC of less than 1 μg/mL)"}, {"measurement": "MIC", "setting": "strain KP1059 Klebsiella pneumoniae (VIM-1, SHV-11)", "result": "Y (MIC of 1 μg/mL to 10 μg/mL)"}, {"measurement": "MIC", "setting": "strain KP1061 Klebsiella pneumoniae (KPC-3, SHV-11, TEM-1)", "result": "X (MIC of less than 1 μg/mL)"}, {"measurement": "MIC", "setting": "strain KP1064 Klebsiella pneumoniae (KPC-2, SHV-11, TEM-1)", "result": "Y (MIC of 1 μg/mL to 10 μg/mL)"}, {"measurement": "MIC", "setting": "strain KP1065 Klebsiella pneumoniae (VIM-1, SHV-11)", "result": "X (MIC of less than 1 μg/mL)"}, {"measurement": "MIC", "setting": "strain KP1070 Klebsiella pneumoniae (KPC-2, SHV-11, TEM-1)", "result": "X (MIC of less than 1 μg/mL)"}, {"measurement": "MIC", "setting": "strain KP1074 Klebsiella pneumoniae (KPC-3, SHV-11, TEM)", "result": "Z (MIC of greater than 10 μg/mL)"}]}
